Laboratory results: US4177271A, “Hydroxy- and oxo-substituted α-benzylidenylcycloalkanes” (Unicler, priority 1977, dated 1979)

What was measured:
[1] = test system: hexobarbital-induced narcosis; assay: Modification (potentialisation) of hexobarbital-induced narcosis in mice; assay type: in vivo; settings: Mus musculus, sodium hexobarbital 70 mg/kg IP half an hour later, read-out: Narcosis potentialisation, T (percentage increase in sleep time induced by hexobarbital); for change in vivo at 200 mg/kg: 200 mg/kg IP; for change in vivo at 10 mg/kg: 10 mg/kg IP; for change in vivo at 100 mg/kg: 100 mg/kg IP
Experimental: (§1) This was investigated by observing the behaviour of the animal by studying the modification in hexobarbital-induced narcosis and antagonism vis-a-vis reserpine.
Mice, each weighing about 20 g, received intraperitoneally the product being investigated. Half an hour later sodium hexobarbital was injected by the same route at a dosage of 70 mg/kg.
The animals were placed on a hot plate maintained at a constant temperature of 27° C. Sleep is considered to have occurred as soon as a mouse, placed in the dorsal decubitus position, is incapable of turning over onto its paws.
The narcosis potentialisation is evaluated from the percentage increase in sleep time induced by hexobarbital (T).

[2] = Acute toxicity (LD50), mice, intraperitoneal route, Log-Probits method of Miller and Tainter; assay type: in vivo; settings: mouse, in vivo, ip
Experimental: (§2) The LD50 of the products was determined in mice by the intraperitoneal route according to the "Log-Probits" method of Miller and Tainter (Proc. Soc. Exptl. Biol. Med. 1944; 57, 261-264).

[3] = test system: blepharospasm produced by reserpine; assay: Antagonism vis-a-vis reserpine (blepharospasm) in mice; assay type: in vivo, Swiss male mice; set-up: key: The inhibition of blepharospasm is recorded from 0 to +++; The inhibition of blepharospasm is recorded from 0 to +++; settings: reserpine 5 mg/kg IP
Experimental: as §1
(Chen G., and Bohner B., (1961) J. pharmacol Exptl. Therap. 131, 179).
Reserpine when administered intraperitoneally to mice in a dosage of 5 mg/kg causes the eyelids to close more or less completely in the majority of animals. The administration of certain products will inhibit the blepharospasm produced by reserpine.
Swiss male mice are distributed into groups of 10 mice, and each experiment includes at least 3 groups:
a control group that receives only the solvent and reserpine
a group treated with a reference product (we chose Imipramine)
a treated group that receives the product being tested.
The products under investigation are administered intraperitoneally at 30 minutes or 2 hours before intraperitoneal injection of reserpine in a dosage of 5 mg/kg, so as to study their activity as a function of time.
The degree of ptosis for each eye and each animal is observed every 30 minutes for 4 to 5 hours, using RUBIN's score method. The activity of the product is determined by comparison with the result obtained with the treated control group. The inhibition of blepharospasm is recorded from 0 to +++.

central nervous system = assay: Activity on the central nervous system (overall conclusion); set-up: species or system mice; settings: mouse, in vivo
Text: as §1

mice = assay: Acute toxicity (LD50), mice, intraperitoneal route, Log-Probits method of Miller and Tainter; assay type: in vivo
Experimental: as §2

| SMILES | LD50 [2] | change in vivo at 200 mg/kg [1] | Blepharospasm (inhibition) ([3]; 200 mg/kg IP) | also measured |
| --- | --- | --- | --- | --- |
| CN1CCN(CC2(C)CCCC(=Cc3ccc4c(c3)OCO4)C2=O)CC1 (centres unmarked) [compound 1352] | 150 mg/kg | – | – | change in vivo at 15 mg/kg ([1]; 15 mg/kg IP): 0%; Blepharospasm (inhibition) ([3]; 15 mg/kg IP): 0 |
| CC1CCC(=O)C(=Cc2ccc3c(c2)OCO3)C1 (centres unmarked) [compound 994] | 2000 mg/kg | 103% | 0 | – |
| CN(C)CC1(C)CCCC(=Cc2ccc3c(c2)OCO3)C1O (centres unmarked) [compound 1349] | 100 mg/kg | – | – | change in vivo at 10 mg/kg [1]: 10% |
| CC1CCCC(=Cc2ccc3c(c2)OCO3)C1O (centres unmarked) [Code No. 1040, 2-(3,4-methylenedioxybenzylidene)-6-methylcyclohexanol or 2-piperonylidene-6-methylcyclohexanol] | 1000 mg/kg | – | – | change in vivo at 100 mg/kg [1]: 174%; usefulness as an anti-depressant (central nervous system): particularly useful as an anti-depressant |
| CC1CCC(O)C(=Cc2ccc3c(c2)OCO3)C1 (centres unmarked) [compound 1446] | 1500 mg/kg | – | – | – |
| O=C1C(=Cc2ccc3c(c2)OCO3)CCc2ccccc21 [compound 1293] | – | 30% | 0 | DL0 (IP) (mice): ≥ 2000 mg/kg |
| OC1CCCC1=Cc1ccc2c(c1)OCO2 (centres unmarked) [compound 1387] | 100 mg/kg | – | – | change in vivo at 10 mg/kg [1]: 40%; Blepharospasm (inhibition) ([3]; 10 mg/kg IP): 0 |
| O=C1C(=Cc2ccc3c(c2)OCO3)Cc2ccccc21 [compound 1292] | – | 62% | 0 | DL0 (IP) (mice): ≥ 2000 mg/kg |
| COc1cc(C=C2CCCC(C)C2=O)cc(OC)c1OC (centres unmarked) [compound 1268] | 1000 mg/kg | – | – | change in vivo at 100 mg/kg [1]: 60% |
| COc1ccc(C=C2CCCC(C)C2=O)cc1OC (centres unmarked) [compound 1266] | 700 mg/kg | – | – | change in vivo at 70 mg/kg ([1]; 70 mg/kg IP): 0%; Blepharospasm (inhibition) ([3]; 70 mg/kg IP): 0 |
| CC1CCCC(=Cc2cc3c(cc2Cl)OCO3)C1O (centres unmarked) [compound 1275] | 2000 mg/kg | 56% | 0 | – |
| OC1C(=Cc2ccc3c(c2)OCO3)CCc2ccccc21 (centres unmarked) [compound 1388] | – | 10% | 0 | DL0 (IP) (mice): > 200 mg/kg |
| CC1CC(=Cc2ccc3c(c2)OCO3)C(=O)C(=Cc2ccc3c(c2)OCO3)C1 (centres unmarked) [compound 1059] | – | 0% | 0 | DL0 (IP) (mice): ≥ 2000 mg/kg |
| O=C1CCCC1=Cc1ccc2c(c1)OCO2 [compound 1386] | 1300 mg/kg | – | – | change in vivo at 130 mg/kg ([1]; 130 mg/kg IP): 190%; Blepharospasm (inhibition) ([3]; 130 mg/kg IP): 0 |
| COc1cc(C=C2CCCC(C)C2O)cc(OC)c1OC (centres unmarked) [compound 1269] | 1100 mg/kg | – | – | change in vivo at 110 mg/kg ([1]; 110 mg/kg IP): 66%; Blepharospasm (inhibition) ([3]; 110 mg/kg IP): 0 |
| CC1CCCC(=Cc2cc3c(cc2Cl)OCO3)C1=O (centres unmarked) [compound 1274] | – | 99% | – | DL0 (IP) (mice): ≥ 2000 mg/kg |
| OC1C(=Cc2ccc3c(c2)OCO3)Cc2ccccc21 (centres unmarked) [compound 1322] | 1500 mg/kg | – | – | change in vivo at 150 mg/kg ([1]; 150 mg/kg IP): 116%; Blepharospasm (inhibition) ([3]; 150 mg/kg IP): 0 |
| CN1CC(=Cc2ccc3c(c2)OCO3)C(O)C(=Cc2ccc3c(c2)OCO3)C1 (centres unmarked) [compound 1324] | – | 83% | 0 | DL0 (IP) (mice): ≥ 2000 mg/kg |
| COc1ccc(C=C2CCCC(C)C2=O)c(OC)c1OC (centres unmarked) [compound 1270] | 1000 mg/kg | – | – | – |
| COc1ccc(C=C2CCCC(C)C2O)cc1OC (centres unmarked) [compound 1267] | 900 mg/kg | – | – | – |
| OC1C(=Cc2ccc3c(c2)OCO3)CCCC1CN1CCOCC1 (centres unmarked) [compound 1347] | 1000 mg/kg | – | – | change in vivo at 100 mg/kg [1]: 60% |
| COc1ccc(C=C2CCCC(C)C2O)c(OC)c1OC (centres unmarked) [compound 1271] | 500 mg/kg | – | – | change in vivo at 50 mg/kg ([1]; 50 mg/kg IP): 0%; Blepharospasm (inhibition) ([3]; 50 mg/kg IP): 0 |
| CC1CCCC(=Cc2ccc3c(c2)OCO3)C1=O (centres unmarked) [compound 993] | 2000 mg/kg | 385% | 0 | – |
